The text below walks through data of PubChem BioAssay AID1963869 (Molecular Pharmacology Branch, DTP, NCI, 2024).

“And” between values parts separate entries of the source, which are not always exact repeats. Identical values can stand only once.

The test concerns KRAS patient-derived spheroids with HUVEC/MSC, viability. Description: Anticancer human tumor 323965-272-R-J2-PDC patient-derived pancreatic carcinoma cell line growth inhibition [KRAS2]. To be noted: for viability, T/C: stronger effect = lower value. The text has this:
Multicellular complex tumor spheroid response to RAS pathway inhibitors in combination with a targeted agents in patient-derived cell lines with oncogenic KRAS variants from multiple cancer types
A high-throughput screen of multi-cell type tumor spheroids was designed to identify active combinations of targeted small molecules and KRAS pathway inhibitors. Complex spheroids include a stromal component modeled by human endothelial cells (HUVEC) and fibroblasts modeled by human mesenchymal stem cells (MSCs). The concentration ranges selected for each drug and investigational agent were based upon clinically achievable concentrations if the clinical Cmax of the agent was known.
Compounds. The drugs and investigational agents: BI-3406 (NSC825286), BAY-293 (NSC824723), batoprotafib (TNO155; NSC825523), sotorasib (AMG 510; NSC818433), MRTX1257 (NSC819558), elimusertib (BAY 1895344; NSC800525), molibresib (GSK525762; NSC774829), temuterkib (LY3214996; NSC803410), venetoclax (NSC766270), alisertib (NSC759677), olaparib (NSC753686), talazoparib (NSC767125), erdafitinib (NSC781556), ipatasertib (NSC767898), cabozantinib (NSC761068), nintedanib (NSC756659), abemaciclib (NSC768073), docetaxel (NSC628503), trametinib (NSC758246), and sapanisertib (NSC764658) were obtained from the National Cancer Institute (NCI) Developmental Therapeutics Program Chemical Repository. The FDA-approved anticancer drug set is available from the Developmental Therapeutics Program. […] The stock solutions were prepared in dimethyl sulfoxide (DMSO, Sigma-Aldrich, St. Louis, MO, cat. D2650) at 800-fold the tested concentration and stored at -70 degrees C prior to their use. All drugs and investigational agents were tested over a range starting from a high concentration at or near the clinical Cmax and decreasing in half-log increments. If the clinical Cmax for an agent had not been determined, the highest concentration tested was 10 microM.
Cell Culture. All cells were maintained in an incubator at 37 degrees C and 5% CO2 with 95% humidity. The PDC lines were cultured according to standard operating procedures established by the NCI PDMR (https://pdmr.cancer.gov/sops/default.htm). Briefly, all PDCs were thawed and cultured in Matrigel-coated flasks prepared with a working solution of 1X Ham's F-12 nutrient mix, without supplementation (Invitrogen, Waltham, MA, cat. 11765054), 100 U/mL penicillin-streptomycin (Invitrogen, cat. 15140122), and 2.5% Matrigel (Corning Inc., Corning, NY, cat. 354248) for the first three passages. All PDCs were cultured in complete DMEM/F-12 media containing advanced DMEM/F-12 (Invitrogen, cat. 12634028), 4.9% defined fetal bovine serum, heat inactivated (HyClone Laboratories Inc., Logan, UT, cat. SH30070.03HI), 389 ng/mL hydrocortisone (Sigma-Aldrich, cat. H4001), 9.7 ng/mL human EGF recombinant protein (Invitrogen, cat. PHG0313), 23.4 microg/mL adenine (Sigma-Aldrich, cat. A2786), 97.3 U/mL penicillin-streptomycin (Invitrogen, cat. 15140122), 1.9 mM L-glutamine (Invitrogen, cat. 25030081), and 9.7 microM Y-27632 dihydrochloride (Tocris Bioscience, Bristol, United Kingdom, cat. 1254). The PDCs were cultured in complete DMEM/F12 media without 9.7 microM Y-27632 dihydrochloride for at least two passages prior to the screen. The established cell line HOP-62 was cultured in RPMI 1640 medium, HEPES (Invitrogen, cat. 22400105) with 10% defined fetal bovine serum (HyClone Laboratories Inc., cat. SH30070.03) and 2 mM L-glutamine (Invitrogen, cat. 25030081). The pooled donor HUVEC were cultured in endothelial cell growth medium 2 (PromoCell, Heidelberg, Germany, cat. C-22011) and the hMSC were cultured in mesenchymal stem cell growth medium 2 (PromoCell, cat. C-28009). For all experiments, HUVEC and hMSC were used at passages </=5, while the malignant cell lines were used at passages </=15. […]
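Note: spheroids exposed to agents for 7 days.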

One may read the IC50 as the concentration needed to halve the response being measured. In general, viability, T/C refers to the ratio of treated to control. As to `Cn1ncnc1[C@H]1c2n[nH]c(=O)c3cc(F)cc(c23)N[C@@H]1c1ccc(F)cc1` + COc1cc2nc(C)nc(NC(C)c3cc(N)cc(C(F)(F)F)c3)c2cc1OC1CCOC1, the half-inhibitory concentration (IC50) runs as follows: (curve of first compound, second compound 0.1 µM) more than 0.1 µM; (curve of first compound, second compound 0.316 µM) more than 0.1 µM; (curve of first compound, second compound 1 µM) more than 0.1 µM; (curve of first compound, second compound 3.16 µM) more than 0.1 µM; (curve of first compound, second compound 10 µM) more than 0.1 µM. For the same compound, the viability, T/C runs as follows: (second compound 0.1 µM, first compound 0.000316 µM) 85.1%; (second compound 0.1 µM, first compound 0.001 µM) 82.1%; (second compound 0.1 µM, first compound 0.00316 µM) 86.3%; (second compound 0.1 µM, first compound 0.01 µM) 73.6%; (second compound 0.1 µM, first compound 0.0316 µM) 76%; (second compound 0.1 µM, first compound 0.1 µM) 70%. In addition, the viability, T/C runs as follows: (second compound 0.316 µM, first compound 0.000316 µM) 79.1%; (second compound 0.316 µM, first compound 0.001 µM) 81.4%; (second compound 0.316 µM, first compound 0.00316 µM) 71.9%; (second compound 0.316 µM, first compound 0.01 µM) 74.9%; (second compound 0.316 µM, first compound 0.0316 µM) 65.2%; (second compound 0.316 µM, first compound 0.1 µM) 61.5%. Besides, the viability, T/C by setting is: (second compound 1 µM, first compound 0.000316 µM) 73.3%; (second compound 1 µM, first compound 0.001 µM) 80.5%; (second compound 1 µM, first compound 0.00316 µM) 69%; (second compound 1 µM, first compound 0.01 µM) 67.2%; (second compound 1 µM, first compound 0.0316 µM) 63.8%; (second compound 1 µM, first compound 0.1 µM) 58.1%. In addition, the viability, T/C reads like this: (second compound 3.16 µM, first compound 0.000316 µM) 79.8%; (second compound 3.16 µM, first compound 0.001 µM) 71.6%; (second compound 3.16 µM, first compound 0.00316 µM) 69.6%; (second compound 3.16 µM, first compound 0.01 µM) 64.4%; (second compound 3.16 µM, first compound 0.0316 µM) 65.2%; (second compound 3.16 µM, first compound 0.1 µM) 61%. Further, the viability, T/C is 75.1% (second compound 10 µM, first compound 0.000316 µM); 79.8% (second compound 10 µM, first compound 0.001 µM); 76.8% (second compound 10 µM, first compound 0.00316 µM); 78.4% (second compound 10 µM, first compound 0.01 µM); 67% (second compound 10 µM, first compound 0.0316 µM); 62.4% (second compound 10 µM, first compound 0.1 µM).

Regarding `CC(C)NCC(C(=O)N1CCN(c2ncnc3c2C(C)CC3O)CC1)c1ccc(Cl)cc1` (configuration not stated), the viability, T/C runs as follows: (compound 0.0316 µM) 97.7% [middle of 5 runs]; (compound 0.1 µM) 94% [middle of 5 runs]; (compound 0.316 µM) 84.9% [middle of 5 runs]; (compound 1 µM) 64.6% [middle of 5 runs]; (compound 3.16 µM) 50.4% [middle of 5 runs]; (compound 10 µM) 41.8% [middle of 5 runs]. In addition, under “curve of compound”, the IC50 was 2.93 µM [middle of 5 runs].

`CC(C)n1nc(-c2ccc3oc(N)nc3c2)c2c(N)ncnc21`: the viability, T/C runs as follows: (compound 0.000316 µM) 91% [middle of 5 runs]; (compound 0.001 µM) 81.3% [middle of 5 runs]; (compound 0.00316 µM) 54.4% [middle of 5 runs]; (compound 0.01 µM) 33.1% [middle of 5 runs]; (compound 0.0316 µM) 24.4% [middle of 5 runs]; (compound 0.1 µM) 21.4% [middle of 5 runs]. For the same compound, the 50% inhibitory concentration (IC50) (curve of compound) is 4 nM [middle of 5 runs].

As to `C=CC(=O)N1CCN(c2nc(=O)n(-c3c(C)ccnc3C(C)C)c3nc(-c4c(O)cccc4F)c(F)cc23)C(C)C1` (configuration not stated), the viability, T/C (compound 0.1 µM) was 58.9% [middle of 17 runs]; the viability, T/C (compound 0.316 µM) is 58.4% [middle of 17 runs]; the viability, T/C (compound 1 µM) was 59.1% [middle of 17 runs]; the viability, T/C (compound 3.16 µM) is 60.4% [middle of 17 runs]; the viability, T/C (compound 10 µM) is 52% [middle of 17 runs]. Besides, the IC50 runs as follows: (compound alone, run of 08/19/2021) > 10 µM and 2.73 µM; (compound alone, run of 08/26/2021) > 10 µM and 7.82 µM and 9.64 µM; (compound alone, run of 09/02/2021) more than 10 µM.
